Legend:
laboratory animals = settings: cited from earlier work
[1] = system: white male mouse oropharynx sections (oral mucosa); test: FeCl3 staining of oropharynx sections: interaction of tannin-containing extracts and compositions with the oral mucosa; format: binding; settings: sections treated 1 hour with 10%, 5%, 1% and 0.1% in distilled water (w/v); 2% FeCl3 for 15 minutes; optical microscope 40x
Protocol: 1. Assessment of interaction among plant extracts containing tannins, plant extracts not containing tannins and oral mucosa.
2 μm-thick sections of untreated white male mouse oropharynx, fixed in formalin with 10% phosphate buffer, were used.
Separate deparaffinized and hydrated sections were treated for 1 hour, respectively with
1—10%, 5%, 1% and 0.1% tannic acid in distilled water (weight/volume)
2—10%, 5%, 1% and 0.1% Agrimonia eupatoria extract in distilled water (w/v), equal to, respectively, 100 mg/ml, 50 mg/ml, 10 mg/ml and 1 mg/ml of Agrimonia eupatoria
3—10%, 5%, 1% and 0.1% Hamamelis Virginiana extract in distilled water (w/v), equal to, respectively, 100 mg/ml, 50 mg/ml, 10 mg/ml and 1 mg/ml of Hamamelis Virginiana
4—10%, 5%, 1% and 0.1% Aloe vera extract in distilled water (w/v)
5—10%, 5%, 1% and 0.1% Commiphora myrrha in distilled water (w/v)
6—composition of the invention in the form of tablets (composition example B) in a 10%, 20% 30% and 50% solution, equal to, respectively, 6.67 mg/ml, 13.34 mg/ml, 20.01 mg/ml and 33.35 mg/ml of Agrimonia eupatoria
7—composition of the invention in the form of spray (composition example C) in a 10%, 20%, 50% and 100% solution, equal to, respectively, 3.3 mg/ml, 6.6 mg/ml, 16.5 mg/ml and 33 mg/ml of Agrimonia eupatoria, […]
The sections were analyzed at the optical microscope (40× magnification) and photographed with a digital camera.

## O=C(OC[C@H]1O[C@@H](OC(=O)c2cc(O)c(O)c(OC(=O)c3cc(O)c(O)c(O)c3)c2)[C@H](OC(=O)c2cc(O)c(O)c(OC(=O)c3cc(O)c(O)c(O)c3)c2)[C@@H](OC(=O)c2cc(O)c(O)c(OC(=O)c3cc(O)c(O)c(O)c3)c2)[C@@H]1OC(=O)c1cc(O)c(O)c(OC(=O)c2cc(O)c(O)c(O)c2)c1)c1cc(O)c(O)c(OC(=O)c2cc(O)c(O)c(O)c2)c1 [Sample 1, tannic acid]
Laboratory animals
  tumour finding after subcutaneous administration: onset of hepatic tumours
[1]
  FeCl3 staining of oropharynx sections: Staining intensity is dependent on concentration

Source: patent US11357813B2, “Composition comprising tannins” (ABOCA S.P.A SOCIETÀ AGRICOLA, priority 2015, dated 2022)
